{"source": "patent US20100151107A1", "about": "“EXTRACTION METHOD FOR THE CLASSIFIED EXTRACTION AND SEPARATION OF VEGETABLE COMPONENT MATERIALS, AND THE APPLICATION THEREOF” (priority 2006, published 2010)", "origin": "cited, not measured here", "key": {"[1]": {"tested_on": "60 different human tumour-cell lines", "conditions": "60 different human tumour-cell lines (leukaemia, lung cancer, large intestine, melanoma, breast cancer)"}, "healthy cells": {"tested_on": "healthy cells", "conditions": "all hitherto described in-vitro experiments"}, "[2]": {"conditions": "in-vitro; against osteoporosis, arteriosclerosis, diseases of the coronary vessels, heart attack and stroke"}, "[3]": {"tested_on": "isolated mouse mammary gland cells", "conditions": "MMOC-test; versus resveratrol isolated from red vine"}, "[4]": {"conditions": "rats; dose 1.000 mg xanthohumol per kg body weight"}}}
{"smiles": "COc1cc(O)c(CC=C(C)C)c(O)c1C(=O)/C=C/c1ccc(O)cc1", "note": "[Xanthohumol, xanthohumol]", "values": [{"measurement": "growth inhibiting and cytotoxic effect", "setting": "[1]", "result": "growth inhibiting and cytotoxic effect"}, {"measurement": "cytotoxic effect against healthy cells", "setting": "healthy cells", "result": "no cytotoxic effect"}, {"measurement": "preventive effect", "setting": "[2]", "result": "preventive effect"}, {"measurement": "effectiveness relative to resveratrol", "setting": "[3]", "result": "more than 200 fold"}, {"measurement": "toxic effect", "setting": "[4]", "result": "no toxic effect"}]}
